Data on seven compounds can be found in PubChem BioAssay (NCI).

Some test systems named below: HS 578T breast; PC-3 prostate; SK-MEL-5 melanoma; A549 NSCLC; MALME-3M melanoma; SF-268 CNS; RXF 393 renal; ACHN renal; MDA-MB-435; SNB-19 CNS.
Test in all cases: NCI anticancer screen, dose series, 48 h

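Assay format: 96-well plates, 48-hour exposure. GI50 = concentration required for 50% inhibition of growth. TGI: concentration producing complete growth inhibition.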 Where a SMILES comes first, the peptide text is derived from it. Bridges are numbered along the chain shown (N, C = ends). [ ]: non-standard residue; d: D form. The star is where a group is joined. ξ: configuration not given here. ξDab(CH2SO3H) = NC(CCNCS(=O)(=O)O)C(=O)O; Heptanoyl(6-Me) = CC(C)CCCCC(=O)*; Dab = NCC[CH](N)C(=O)O Bounds are passed on as bounds.

As for `S=C(NCCNC(=S)[S][Sn]([c]1ccccc1)([c]1ccccc1)[c]1ccccc1)[S][Sn]([c]1ccccc1)([c]1ccccc1)[c]1ccccc1`, the GI50 with HS 578T breast was 0.0564 µM; with PC-3 prostate it was 0.0311 µM; in the assay on SK-MEL-5 melanoma, 0.0432 µM; in the assay with A549 NSCLC it was 0.0231 µM; in the assay with MALME-3M melanoma, 0.0687 µM; in the assay with SF-268 CNS, 0.0416 µM. Further, the GI50 in the assay with RXF 393 renal is 0.01 µM; with ACHN renal, 0.0185 µM; with MDA-MB-435, 0.0153 µM; in the assay on SNB-19 CNS it was 0.0638 µM. The TGI with HS 578T breast was 0.461 µM; with PC-3 prostate, 0.153 µM; in the assay on SK-MEL-5 melanoma it was 0.108 µM; in the assay on A549 NSCLC, 0.0938 µM; in the assay on MALME-3M melanoma, 0.201 µM; in the assay with SF-268 CNS it was 0.123 µM. Further, the TGI in the assay on RXF 393 renal amounted to 0.0206 µM; in the assay with ACHN renal, 0.0624 µM; in the assay on MDA-MB-435 it was 0.0559 µM; in the assay on SNB-19 CNS, 0.139 µM.

For the compound `Cn1nc(C(F)(F)F)cc1-c1c[nH]c(OCc2ccc(Cl)cc2)c(-c2ccc(Cl)c(C(F)(F)F)c2)c1=O`, the GI50 with HS 578T breast was 1.07 µM; with PC-3 prostate, 0.756 µM; with SK-MEL-5 melanoma, 0.568 µM; in the assay with A549 NSCLC, 1.45 µM; with MALME-3M melanoma, 1.09 µM; with SF-268 CNS it was 1.08 µM. Besides, the GI50 with RXF 393 renal was 1.13 µM; in the assay on ACHN renal it was 1.28 µM; in the assay with MDA-MB-435 it was 1.37 µM; in the assay on SNB-19 CNS, 1.63 µM. Further, the TGI was 3.85 µM with HS 578T breast; 4.32 µM in the assay on PC-3 prostate; 1.34 µM in the assay with SK-MEL-5 melanoma; over 50 µM with A549 NSCLC; 3.07 µM in the assay on MALME-3M melanoma; over 23.8 µM in the assay with SF-268 CNS. The TGI is 3.4 µM with RXF 393 renal, 4.23 µM in the assay with ACHN renal, 6.75 µM in the assay on MDA-MB-435 and over 50 µM in the assay on SNB-19 CNS.

Consider `Cc1ccc(NC(=O)c2cc3ccccc3c(N=Nc3cc(S(=O)(=O)O)ccc3O)c2O)c(C)c1`, for which the TGI in the assay with HS 578T breast was over 100 µM; with PC-3 prostate, over 100 µM; in the assay on SK-MEL-5 melanoma it was over 100 µM; in the assay on A549 NSCLC it was 80.9 µM; in the assay with MALME-3M melanoma it was 63.8 µM; in the assay with SF-268 CNS, over 100 µM. The TGI in the assay with RXF 393 renal is 63.6 µM; with ACHN renal, 23 µM; in the assay on MDA-MB-435, over 100 µM; with SNB-19 CNS it was 71.3 µM.

In the case of `C[C@@H](NC(=O)/C(C#N)=C/c1ccc([N+](=O)[O-])cc1)c1ccccc1`, the GI50 was 5.92 µM with HS 578T breast; 2.34 µM with PC-3 prostate; 1.94 µM in the assay on SK-MEL-5 melanoma; 2.94 µM in the assay on A549 NSCLC; 2.92 µM in the assay on MALME-3M melanoma; 3.69 µM with SF-268 CNS. Moreover, the GI50 was 1.62 µM with RXF 393 renal, 1.76 µM with ACHN renal, 2.7 µM in the assay with MDA-MB-435 and 2.52 µM in the assay with SNB-19 CNS. Further, the TGI with HS 578T breast is over 32.9 µM; with PC-3 prostate, 6.65 µM; in the assay with SK-MEL-5 melanoma, 3.95 µM; with A549 NSCLC, 8.37 µM; in the assay on MALME-3M melanoma, 8.31 µM; in the assay on SF-268 CNS it was 13.4 µM. Besides, the TGI came out at 3.04 µM in the assay on RXF 393 renal, 3.29 µM in the assay on ACHN renal, 7.63 µM in the assay with MDA-MB-435 and 7.31 µM with SNB-19 CNS.

Consider `Cc1ccc(-c2cc3c4c(nc5ccccc53)C(=O)c3cccnc3-c4n2)cc1`, for which the GI50 is 18.3 µM in the assay on HS 578T breast; 17.3 µM in the assay with PC-3 prostate; 1.67 µM with SK-MEL-5 melanoma; 4.02 µM in the assay on A549 NSCLC; 17.8 µM in the assay with MALME-3M melanoma; 17 µM in the assay on SF-268 CNS. Further, the GI50 is 9.58 µM in the assay with RXF 393 renal, 22.5 µM in the assay on ACHN renal, 5.08 µM with MDA-MB-435 and 13.2 µM with SNB-19 CNS. Moreover, the TGI in the assay with HS 578T breast was 43.8 µM; with PC-3 prostate, over 83.8 µM; in the assay with SK-MEL-5 melanoma, 3.89 µM; with A549 NSCLC, 16.2 µM; with MALME-3M melanoma it was 32.6 µM; with SF-268 CNS, 61.1 µM. The TGI is over 100 µM in the assay with RXF 393 renal, 80.6 µM in the assay with ACHN renal, 16 µM in the assay with MDA-MB-435 and 60.9 µM in the assay on SNB-19 CNS.

For the compound `COc1cc(-c2oc3c(OC)cc(OC)c(O)c3c(=O)c2OC)cc(OC)c1OC`, the TGI in the assay with HS 578T breast is 8.21 µM; in the assay on PC-3 prostate it was over 100 µM; with SK-MEL-5 melanoma, over 100 µM; with A549 NSCLC, over 100 µM; in the assay on MALME-3M melanoma, over 100 µM; in the assay with SF-268 CNS, over 100 µM. The TGI in the assay with RXF 393 renal, in the assay on ACHN renal, in the assay with MDA-MB-435 and in the assay on SNB-19 CNS was over 100 µM each time.

On to `CCC(C)C1NC(=O)C(CCNCS(=O)(=O)O)NC(=O)C(NC(=O)C(CCNCS(=O)(=O)O)NC(=O)C(NC(=O)C(CCNCS(=O)(=O)O)NC(=O)CCCCC(C)C)C(C)O)CCNC(=O)C(C(C)O)NC(=O)C(CCNCS(=O)(=O)O)NC(=O)C(CCNCS(=O)(=O)O)NC(=O)C(C(C)CC)NC1=O` (stereo not given) ({Heptanoyl(6-Me)}-[ξDab(CH2SO3H)]T[ξDab(CH2SO3H)][Dab][ξDab(CH2SO3H)]II[ξDab(CH2SO3H)][ξDab(CH2SO3H)]T; lactam 4-C; configuration not given here), for which the GI50 was 7.65 µM in the assay on HS 578T breast; 7.97 µM with PC-3 prostate; 1.96 µM in the assay with SK-MEL-5 melanoma; over 25 µM in the assay with A549 NSCLC; over 25 µM with MALME-3M melanoma; 6.88 µM with SF-268 CNS. In addition, the GI50 in the assay with RXF 393 renal is 7.47 µM; with ACHN renal it was over 25 µM; in the assay on MDA-MB-435, 0.93 µM; with SNB-19 CNS, 11.6 µM. Moreover, the TGI in the assay on HS 578T breast is over 25 µM; in the assay with PC-3 prostate, over 25 µM; in the assay on SK-MEL-5 melanoma, 11.4 µM; with A549 NSCLC, over 25 µM; in the assay on MALME-3M melanoma, over 25 µM; in the assay with SF-268 CNS, over 25 µM. Besides, the TGI is over 25 µM in the assay with RXF 393 renal, over 25 µM in the assay with ACHN renal, 5.02 µM with MDA-MB-435 and over 25 µM with SNB-19 CNS.
